species: Mus musculus; assay: Logarithm of effective dose evaluated using the foot-shock test in mice; format: functional; conditions: not given

**Q.** How did the “Log ED50” value turn out when CN1C(=O)CN=C(c2ccccc2F)c2cc([N+](=O)[O-])ccc21 [FLUNITRAZEPAM] was run?
**A.** 2.59 mM kg-1

**Q.** CN1C(=O)CN=C(c2ccccc2)c2cc(Cl)ccc21 [DIAZEPAM] was tested. Which “Log ED50” value did it give?
**A.** 1.45 mM kg-1

**Q.** O=C1CN=C(c2ccccc2)c2cc(F)ccc2N1 [RO-053061] was tested. Which “Log ED50” value did it give?
**A.** 0.4 mM kg-1

**Q.** With CN(C)c1ccc2c(c1)C(c1ccccc1)=NCC(=O)N2C as the compound, how does the “Log ED50” value read?
**A.** 0.86 mM kg-1

**Q.** With CN1C(=O)CN=C(c2ccccc2)c2cc(C#N)ccc21 as the compound, how does the “Log ED50” value read?
**A.** 1.74 mM kg-1

**Q.** With CN1C(=O)CN=C(c2ccccc2F)c2ccccc21 [RO-054520] as the compound, how does the “Log ED50” value read?
**A.** 0.83 mM kg-1

**Q.** Which “Log ED50” value does the source give for CN1C(=O)CN=C(c2ccccc2Cl)c2cc(Cl)ccc21 here?
**A.** 1.5 mM kg-1

**Q.** For CN1C(=O)CN=C(c2ccccc2F)c2cc(Cl)ccc21 [FLUDIAZEPAM], which “Log ED50” value is on record?
**A.** 1.78 mM kg-1

**Q.** Which “Log ED50” value does the source give for CN(C)c1ccc2c(c1)C(c1ccccc1Cl)=NCC(=O)N2C here?
**A.** 0.61 mM kg-1

**Q.** O=C1CN=C(c2ccccc2)c2cc(C(F)(F)F)ccc2N1 [RO-052904] was tested. Which “Log ED50” value did it give?
**A.** 1.48 mM kg-1

**Q.** How did the “Log ED50” value turn out when CSc1ccc2c(c1)C(c1ccccc1)=NCC(=O)N2 was run?
**A.** 1.15 mM kg-1

**Q.** For CN1C(=O)CN=C(c2ccccc2C(F)(F)F)c2cc([N+](=O)[O-])ccc21, which “Log ED50” value is on record?
**A.** 1.86 mM kg-1

**Q.** How did the “Log ED50” value turn out when O=C1CN=C(c2ccccc2)c2ccccc2N1 [RO-052921] was run?
**A.** 0.37 mM kg-1

**Q.** For CSc1ccc2c(c1)C(c1ccccc1)=NCC(=O)N2C, which “Log ED50” value is on record?
**A.** 0.87 mM kg-1

**Q.** How did the “Log ED50” value turn out when CN1C(=O)CN=C(c2ccccc2Cl)c2cc([N+](=O)[O-])ccc21 [RO-054082] was run?
**A.** 2.12 mM kg-1

**Q.** O=C1CN=C(c2ccccc2)c2cc([N+](=O)[O-])ccc2N1 [NITRAZEPAM] was tested. Which “Log ED50” value did it give?
**A.** 1.75 mM kg-1

**Q.** How did the “Log ED50” value turn out when CN1C(=O)CN=C(c2ccccc2)c2cc([N+](=O)[O-])ccc21 [NIMETAZEPAM] was run?
**A.** 2.07 mM kg-1

**Q.** For N#Cc1ccc2c(c1)C(c1ccccc1)=NCC(=O)N2, which “Log ED50” value is on record?
**A.** 0.81 mM kg-1

test system: Escherichia coli; assay: Logarithm of the inhibitory rate constant against Escherichia coli; format: functional; conditions: not given

**Q.** How did the Log rate constant turn out when CN(C)c1ccc2c(c1O)C(O)=C1C(=O)[C@]3(O)C(O)=C(C(N)=O)C(=O)[C@@H](N(C)C)[C@@H]3CC1C2 (some centres undefined) was run?
**A.** 1.37 M-1 s-1

**Q.** CN(C)[C@@H]1C(=O)C(C(N)=O)=C(O)C2C(=O)C3=C(O)c4c(O)cccc4CC3C[C@H]21 (some centres undefined) was tested. Which Log rate constant did it give?
**A.** 0.41 M-1 s-1

**Q.** Which Log rate constant does the source give for CN(C)[C@@H]1C(=O)C(C(N)=O)=C(O)C2C(O)C3=C(C[C@H]21)[C@@](C)(O)c1c(Cl)ccc(O)c1C3=O (some centres undefined) here?
**A.** -0.47 M-1 s-1

**Q.** Which Log rate constant does the source give for CN(C)[C@@H]1C(=O)C(C(N)=O)=C(O)[C@@]2(O)C(=O)C3=C(O)c4c(ccc(N)c4O)CC3C[C@@H]12 (some centres undefined) here?
**A.** 2.16 M-1 s-1

**Q.** For CN(C)[C@@H]1C(=O)C(C(N)=O)=C(O)[C@@]2(O)C(=O)C3=C(O)c4c(O)ccc([N+](=O)[O-])c4CC3C[C@@H]12 (some centres undefined), which Log rate constant is on record?
**A.** 2.87 M-1 s-1

**Q.** How did the Log rate constant turn out when CN(C)[C@@H]1C(=O)C(C(N)=O)=C(O)[C@@]2(O)C(O)=C3C(=O)c4c(O)cccc4[C@](C)(O)C3C(=O)[C@@H]12 (some centres undefined) was run?
**A.** 2.41 M-1 s-1

**Q.** CN(C)[C@@H]1C(=O)C(C(N)=O)=C(O)[C@@]2(O)C(O)=C3C(=O)c4c(O)cccc4[C@](C)(O)C3C[C@@H]12 (some centres undefined) was tested. Which Log rate constant did it give?
**A.** 2.43 M-1 s-1

**Q.** How did the Log rate constant turn out when CN(C)[C@@H]1C(=O)C(C(N)=O)=C(O)[C@@]2(O)C(=O)C3=C(O)c4c(O)ccc(Br)c4CC3C[C@@H]12 (some centres undefined) was run?
**A.** 1.71 M-1 s-1

**Q.** With CN(C)[C@@H]1C(=O)C(C(N)=O)=C(O)[C@@]2(O)C(=O)C3=C(O)c4c(ccc([N+](=O)[O-])c4O)CC3C[C@@H]12 (some centres undefined) as the compound, how does the Log rate constant read?
**A.** 1.65 M-1 s-1

**Q.** CN(C)[C@@H]1C(=O)C(C(N)=O)=C(O)[C@@]2(O)C(=O)C3=C(O)c4c(O)ccc(Cl)c4C(O)C3C[C@@H]12 (some centres undefined) was tested. Which Log rate constant did it give?
**A.** 2.71 M-1 s-1

**Q.** Which Log rate constant does the source give for CN(C)[C@@H]1C(=O)C(C(N)=O)=C(O)[C@@]2(O)C(O)=C3C(=O)c4c(O)ccc(Cl)c4[C@](C)(O)C3C[C@@H]12 (some centres undefined) here?
**A.** 2.6 M-1 s-1

**Q.** How did the Log rate constant turn out when CN(C)[C@@H]1C(O)=C(C(N)=O)C(=O)[C@@]2(O)C(O)=C3C(=O)c4c(O)cccc4C[C@H]3C[C@@H]12 [SANCYCLINE] was run?
**A.** 1.98 M-1 s-1

**Q.** Cc1c2c(c(O)c3c(O)cccc13)C(=O)C1C(O)=C(C(N)=O)C(=O)[C@@H](N(C)C)[C@@H]1C2 (some centres undefined) was tested. Which Log rate constant did it give?
**A.** 1.19 M-1 s-1

**Q.** How did the Log rate constant turn out when CN(C)[C@@H]1C(=O)C(C(N)=O)=C(O)[C@@]2(O)C(=O)C3=C(O)c4c(O)ccc(N)c4CC3C[C@@H]12 (some centres undefined) was run?
**A.** 2.26 M-1 s-1

biological target: T1, Phenylethanolamine N-methyltransferase (Homo sapiens) (UniProt P11086); conditions: Oryctolagus cuniculus
T1 sequence (whole entry): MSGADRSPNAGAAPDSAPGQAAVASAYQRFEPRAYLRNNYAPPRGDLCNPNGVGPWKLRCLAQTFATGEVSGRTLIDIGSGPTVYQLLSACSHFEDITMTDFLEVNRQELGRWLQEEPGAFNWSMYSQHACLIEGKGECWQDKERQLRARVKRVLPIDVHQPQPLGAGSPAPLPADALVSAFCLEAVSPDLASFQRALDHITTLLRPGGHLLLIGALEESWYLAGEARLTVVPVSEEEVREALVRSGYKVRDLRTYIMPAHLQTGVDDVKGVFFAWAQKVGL
Description: Inhibition of phenylethanolamine N-methyltransferase(PNMT)activity

**Q.** How did the pI50 turn out when NCc1ccc(C(F)(F)F)cc1 was run?
**A.** 5.2

**Q.** For Cc1ccc(CN)cc1, which pI50 is on record?
**A.** 3.16

**Q.** NCc1cccc(Cl)c1 was tested. Which pI50 did it give?
**A.** 5.07

**Q.** Which pI50 does the source give for NCc1cc(Cl)ccc1Cl here?
**A.** 4.82

**Q.** How did the pI50 turn out when NCc1ccc(Cl)cc1Cl was run?
**A.** 4.68

**Q.** With Cc1ccccc1CN as the compound, how does the pI50 read?
**A.** 4.17

**Q.** Which pI50 does the source give for NCc1cccc(F)c1 here?
**A.** 4

**Q.** How did the pI50 turn out when NCc1cccc(C(F)(F)F)c1 was run?
**A.** 5.64

**Q.** For NCc1ccccc1C(F)(F)F, which pI50 is on record?
**A.** 4.64

**Q.** For Cc1cccc(CN)c1, which pI50 is on record?
**A.** 3.82

**Q.** How did the pI50 turn out when NCc1ccccc1F was run?
**A.** 3.87

**Q.** Which pI50 does the source give for Cc1cccc(CN)c1C here?
**A.** 4.24

Reference: ChEMBL document CHEMBL1122262, “Quantitative structure-activity relationships employing independent quantum chemical indices” (1983)
